Data: ChEMBL document CHEMBL1145055, “A novel class of nonpeptidic biaryl inhibitors of human cathepsin K” (J Med Chem, 2003)

How the values were obtained:
Cathepsin K [1] = biological target: T1, Cathepsin K (Homo sapiens, UniProt P43235); test: In vitro inhibitory activity against human cathepsin K, using 2 uM of Z -Leu-Arg-AMC as substrate
T1 sequence (P43235 whole entry): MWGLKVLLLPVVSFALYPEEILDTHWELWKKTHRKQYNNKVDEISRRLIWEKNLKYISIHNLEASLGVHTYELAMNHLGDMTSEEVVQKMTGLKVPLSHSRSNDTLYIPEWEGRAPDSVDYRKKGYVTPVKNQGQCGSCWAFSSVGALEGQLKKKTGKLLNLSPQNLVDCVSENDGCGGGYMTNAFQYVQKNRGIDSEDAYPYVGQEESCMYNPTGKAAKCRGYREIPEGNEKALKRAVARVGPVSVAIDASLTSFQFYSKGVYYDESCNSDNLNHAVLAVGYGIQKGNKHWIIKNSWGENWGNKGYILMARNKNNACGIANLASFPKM

Cathepsin B = Cathepsin B (Homo sapiens, UniProt P07858); test: In vitro inhibitory activity against human cathepsin B, using 2 uM of Z -Leu-Arg-AMC as substrate
Procathepsin L = Procathepsin L (Homo sapiens, UniProt P07711); test: In vitro inhibitory activity against human cathepsin L, using 2 uM of Z -Leu-Arg-AMC as substrate
Cathepsin S = Cathepsin S (Homo sapiens, UniProt P25774); test: In vitro inhibitory activity against human cathepsin S, using 2 uM of Z -Leu-Arg-AMC as substrate
Bos taurus = species: Bos taurus; test: cells
Description: In vitro Bone resorption; measuring degradation of bovine bone by isolated osteoclasts

[2] = biological target: T2, Cathepsin K (Homo sapiens) (UniProt P43235); test: Pre steady state kinetic parameter K off was determined
T2 sequence (whole entry): T1 sequence (P43235 whole entry)

Cathepsin K [3] = biological target: T1, Cathepsin K; test: In vitro inhibitory activity against Human Cathepsin K using 2 uM of Z -Leu-Arg-AMC as substrate

Chain of Procathepsin L (P07711 whole entry): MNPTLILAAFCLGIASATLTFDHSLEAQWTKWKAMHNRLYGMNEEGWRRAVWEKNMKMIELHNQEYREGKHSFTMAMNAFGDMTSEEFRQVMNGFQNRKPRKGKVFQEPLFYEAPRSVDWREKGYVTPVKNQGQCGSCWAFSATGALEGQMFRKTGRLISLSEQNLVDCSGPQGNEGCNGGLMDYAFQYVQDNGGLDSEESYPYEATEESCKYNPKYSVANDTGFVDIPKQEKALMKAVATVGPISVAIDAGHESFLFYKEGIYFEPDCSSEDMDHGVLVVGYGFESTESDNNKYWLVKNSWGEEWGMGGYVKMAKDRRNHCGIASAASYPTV
Chain of Cathepsin S (P25774 whole entry): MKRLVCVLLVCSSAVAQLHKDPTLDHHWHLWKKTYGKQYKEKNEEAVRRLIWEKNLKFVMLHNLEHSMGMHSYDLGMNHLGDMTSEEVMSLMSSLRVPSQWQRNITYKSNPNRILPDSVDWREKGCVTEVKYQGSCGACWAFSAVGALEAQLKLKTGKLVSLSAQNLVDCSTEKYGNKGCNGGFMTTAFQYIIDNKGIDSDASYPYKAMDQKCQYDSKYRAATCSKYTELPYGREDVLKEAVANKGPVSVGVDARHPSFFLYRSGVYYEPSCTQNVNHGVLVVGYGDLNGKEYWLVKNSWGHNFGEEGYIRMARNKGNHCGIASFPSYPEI

Structure (SMILES)	IC50 (Cathepsin K [1])	IC50 (Cathepsin B)	IC50 (Procathepsin L)	IC50 (Cathepsin S)	IC50 (Bos taurus)	k off [2]	Ki (Cathepsin K [3])
CC(C)CC(C(=O)NCC#N)c1ccc(-c2ccccc2)cc1 (centres undefined)	0.79 µM	> 10 µM	> 10 µM	3.34 µM			
CC(C)CC(C(=O)NCC#N)c1cccc(-c2ccc(C(N)=O)cc2)c1 (centres undefined)	1.02 µM	> 10 µM	> 10 µM	1.37 µM			
CC(C)CC(C(=O)NCC#N)c1cccc(-c2ccc3[nH]ccc3c2)c1 (racemic)	0.052 µM	> 10 µM	> 10 µM	0.922 µM	0.249 µM		
CC(C)CC(C(=O)NCC#N)c1cccc(-c2ccc(N3CCN(C(C)(C)C)CC3)cc2)c1 (centres undefined)	0.02 µM	0.379 µM	1.67 µM	8.34 µM	0.34 µM		
CC(C)CC(C(=O)NCC#N)c1cccc(-c2ccc(N3CCNCC3)cc2)c1 (racemic)	0.009 µM	2.41 µM	4.8 µM	1.24 µM	0.162 µM		
CC(C)CC(C(=O)NCC#N)c1cncc(-c2ccccc2)c1 (centres undefined)	0.142 µM	> 10 µM	0.825 µM	> 10 µM	1.4 µM		
CN1CCN(c2ccc(-c3cccc(CC(=O)NCC#N)c3)cc2)CC1	> 10 µM	> 10 µM	> 10 µM	> 10 µM			
CC(C)C[C@@H](C(=O)NCC#N)c1cccc(-c2ccc(N3CCN(C)CC3)cc2)c1	0.006 µM	2.6 µM	6.27 µM	3.93 µM	0.096 µM		
CC(C)CC(C(=O)NCC#N)c1cccc(-c2ccc(N3CCN(C)CC3)cc2)c1 (racemic)	0.008 µM	3.84 µM	4.64 µM	1.69 µM	0.078 µM		
CC(C)CC(C(=O)NCC#N)c1cccc(-c2ccc(C3CNCCN3)cc2)c1 (stereo in doubt; 44)	0.058 µM	1.25 µM	0.338 µM	0.521 µM			
CC(C)CC(C(=O)NCC#N)c1cccc(-c2ccc(C3CNCCN3)cc2)c1 (stereo in doubt; 43)	0.216 µM	> 10 µM	> 10 µM	> 10 µM	4.87 µM		
CN1CCN(c2ccc(-c3cccc(C(CC4CC4)C(=O)NCC#N)c3)cc2)CC1 (centres undefined)	0.065 µM	3.43 µM	> 10 µM	6.6 µM			
CC(C)CC(C(=O)NCC#N)c1cccc(-c2ccc(S(C)(=O)=O)cc2)c1 (centres undefined)	1.23 µM	> 10 µM	> 10 µM	6.62 µM			
CC(C)CC(C(=O)NCC#N)c1cccc(-c2ccc(-c3ccncc3)cc2)c1 (centres undefined)	0.097 µM	3.33 µM	8.39 µM	1.36 µM	1.24 µM		
CC(C)CC(C(=O)NCC#N)c1cccc(-c2ccccc2)c1 (centres undefined)	0.056 µM	> 10 µM	0.498 µM	1.58 µM	3.56 µM		
CC(C)CC(C(=O)NCC#N)c1cccc(-c2ccc(N3CCN(C(=O)OC(C)(C)C)CC3)cc2)c1 (centres undefined)	0.922 µM	> 10 µM	> 10 µM	1.3 µM			
CC(C)C[C@@H](C(=O)NCC#N)c1cccc(-c2ccc(N3CCNCC3)cc2)c1	0.003 µM	3.95 µM	3.72 µM	2.01 µM	0.095 µM		
CC(C)CC(C(=O)NCC#N)c1cccc(-c2ccc(N3CCN(CCO)CC3)cc2)c1 (centres undefined)	0.012 µM	3.34 µM	0.14 µM	0.609 µM			
CC(C)C[C@@H](C(=O)NCC#N)c1cccc(-c2ccc3[nH]ccc3c2)c1	0.008 µM						
CC(C)CC(C(=O)NCC#N)c1cccc(-c2ccc(N3CCOCC3)cc2)c1 (centres undefined)	0.638 µM	1.74 µM	1.59 µM	9.42 µM			

Structure (SMILES)	IC50 (Cathepsin K [1])	IC50 (Cathepsin B)	IC50 (Procathepsin L)	IC50 (Cathepsin S)	IC50 (Bos taurus)	k off [2]	Ki (Cathepsin K [3])
CC[C@H](C)CC(C(=O)NCC#N)c1cccc(-c2ccc(N3CCN(C)CC3)cc2)c1 (some centres undefined)	0.051 µM	5.79 µM	> 10 µM	> 10 µM			
CC(C)CC(C(=O)NCC#N)c1cccc(-c2ccc(N3CCN(CC(C)(C)N)CC3)cc2)c1 (centres undefined)	0.016 µM	> 10 µM	> 10 µM	1.43 µM	0.552 µM		
CC(C)CC(NC(=O)c1ccccc1)C(=O)NCC#N (centres undefined)	0.051 µM	1.9 µM		0.041 µM			
CC(C)CC(C(=O)NCC#N)c1cccc(-c2ccc(C3CNCCO3)cc2)c1 (centres undefined)	0.614 µM	> 10 µM	0.919 µM	3.37 µM	2.81 µM		
CC(=O)CN1CCN(c2ccc(-c3cccc(C(CC(C)C)C(=O)NCC#N)c3)cc2)CC1 (centres undefined)	0.01 µM	0.55 µM	2.16 µM	2.36 µM	0.121 µM		
CC(C)CC(C(=O)NCC#N)c1cccc(-c2cncnc2)c1 (centres undefined)	1.04 µM	> 10 µM	> 10 µM	> 10 µM			
CC(C)CC(C(=O)NCC#N)c1cccc(-c2ccccn2)c1 (centres undefined)	0.488 µM	> 10 µM	5.58 µM	> 10 µM			
CC(C)CC(C(=O)N(CC#N)OC(=O)C(F)(F)F)c1cccc(-c2ccncc2)c1 (centres undefined)	0.15 µM	> 10 µM	5.78 µM	1.75 µM			
CC(C)CC(C(=O)NCC#N)c1cccc(-c2ccc(C3CCNCC3)cc2)c1 (centres undefined)	0.018 µM	1.07 µM	2.75 µM	1.42 µM	0.489 µM		
CC(C)CC(C(=O)NCC#N)c1cccc(-c2cccnc2)c1 (centres undefined)	0.803 µM	> 10 µM	5.95 µM	8.04 µM			
CC(C)C[C@H](C(=O)NCC#N)c1cccc(-c2ccc3[nH]ccc3c2)c1	0.079 µM						
CC(C)CC(C(=O)NCC#N)c1cccc(-c2ccc(C3=CCNCC3)cc2)c1 (centres undefined)	0.057 µM	0.554 µM	1.68 µM	0.652 µM	0.267 µM		
CC(C)CC(C(=O)NCC#N)c1csc(-c2ccccc2)n1 (centres undefined)	1.46 µM	> 10 µM	> 10 µM	> 10 µM			
CN1CCN(c2ccc(-c3cccc(C(CC4CCC4)C(=O)NCC#N)c3)cc2)CC1 (centres undefined)	0.062 µM	8.05 µM	> 10 µM	2.31 µM			
CN1CCN(c2ccc(-c3cccc(C(Cc4ccccc4)C(=O)NCC#N)c3)cc2)CC1 (centres undefined)	1.4 µM	> 10 µM	3.91 µM	> 10 µM			
CCCC(C(=O)NCC#N)c1cccc(-c2ccc(N3CCN(C)CC3)cc2)c1 (centres undefined)	0.087 µM	> 10 µM	> 10 µM	> 10 µM			
CC(C)CC(C(=O)NCC#N)c1cccc(-c2ccc(C34CCN(CC3)CC4)cc2)c1 (centres undefined)	0.037 µM	2.23 µM	2.24 µM	1.99 µM	0.198 µM		
CC(C)CC(C(=O)NCC#N)c1cccc(-c2ccc(N3CCN(CC(C)(C)O)CC3)cc2)c1 (centres undefined)	0.006 µM	6.37 µM	9.55 µM	> 10 µM	0.142 µM		
CC(C)CC(C(=O)NC1(C#N)CC1)c1cccc(-c2ccc(N3CCNCC3)cc2)c1 (centres undefined)	0.003 µM					0.0014 s⁻¹	0.01 µM
CC(C)CC(C(=O)NCC#N)c1cccc(-c2ccc3cc[nH]c3c2)c1 (centres undefined)	0.291 µM	> 10 µM		1.26 µM	2.78 µM		
